Data from PubChem BioAssay AID1963850 (Molecular Pharmacology Branch, DTP, NCI, 2024).

Test system: 192522-019-R-J2-PDC complex tumor spheroid viability
Assay: Anticancer human tumor 192522-019-R-J2-PDC patient-derived colon adenocarcinoma cell line growth inhibition [POLQ]
Settings: for IC50: curve of first compound; for viability, T/C: stronger effect = lower value
In short: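 Complex spheroid viability model combining PDC tumour cells with endothelial (HUVEC) and MSC stromal cells. Novobiocin, ART-558 or RP6685 were tested singly and in combination with standard and investigational anticancer drugs. Each was titrated in half-log steps from near clinical Cmax, or from 10 microM where Cmax was unknown.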

[1] = second compound 0.0316 µM, first compound 0.0316 µM
[2] = second compound 0.0316 µM, first compound 0.1 µM
[3] = second compound 0.0316 µM, first compound 0.316 µM
[4] = second compound 0.0316 µM, first compound 1 µM
[5] = second compound 0.0316 µM, first compound 3.16 µM
[6] = second compound 0.0316 µM, first compound 10 µM
[7] = second compound 0.1 µM, first compound 0.0316 µM
[8] = second compound 0.1 µM, first compound 0.1 µM
[9] = second compound 0.1 µM, first compound 0.316 µM
[10] = second compound 0.1 µM, first compound 1 µM
[11] = second compound 0.1 µM, first compound 3.16 µM
[12] = second compound 0.1 µM, first compound 10 µM
[13] = second compound 0.316 µM, first compound 0.0316 µM
[14] = second compound 0.316 µM, first compound 0.1 µM
[15] = second compound 0.316 µM, first compound 0.316 µM
[16] = second compound 0.316 µM, first compound 1 µM
[17] = second compound 0.316 µM, first compound 3.16 µM
[18] = second compound 0.316 µM, first compound 10 µM
[19] = second compound 1 µM, first compound 0.0316 µM
[20] = second compound 1 µM, first compound 0.1 µM
[21] = second compound 1 µM, first compound 0.316 µM
[22] = second compound 1 µM, first compound 1 µM
[23] = second compound 1 µM, first compound 3.16 µM
[24] = second compound 1 µM, first compound 10 µM
[25] = second compound 3.16 µM, first compound 0.0316 µM
[26] = second compound 3.16 µM, first compound 0.1 µM
[27] = second compound 3.16 µM, first compound 0.316 µM
[28] = second compound 3.16 µM, first compound 1 µM
[29] = second compound 3.16 µM, first compound 3.16 µM
[30] = second compound 3.16 µM, first compound 10 µM
[31] = second compound 10 µM, first compound 0.0316 µM
[32] = second compound 10 µM, first compound 0.1 µM
[33] = second compound 10 µM, first compound 0.316 µM
[34] = second compound 10 µM, first compound 1 µM
[35] = second compound 10 µM, first compound 3.16 µM
[36] = second compound 10 µM, first compound 10 µM
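Also: spheroids exposed to drugs for seven days before reading.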
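For viability, T/C in this document: 100% = DMSO vehicle control viability in luminescence.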

C#Cc1c(F)ccc2cc(O)cc(-c3ncc4c(N5CC6CCC(C5)N6)nc(OCC56CCCN5CC(F)C6)nc4c3F)c12 (stereo unspecified) + Cc1cccc(N(C)C(=O)C2C(O)CCN2c2nc(C)cc(C(F)(F)F)c2C#N)c1
IC50 (second compound 0.0316 µM): > 10 µM
IC50 (second compound 0.1 µM): > 10 µM
IC50 (second compound 0.316 µM): > 10 µM
IC50 (second compound 1 µM): > 10 µM
IC50 (second compound 3.16 µM): > 10 µM
IC50 (second compound 10 µM): > 10 µM
viability, T/C [1]: 102%
viability, T/C [2]: 78.8%
viability, T/C [3]: 78.5%
viability, T/C [4]: 82.1%
viability, T/C [5]: 76.5%
viability, T/C [6]: 66.5%
viability, T/C [7]: 103%
viability, T/C [8]: 86.2%
viability, T/C [9]: 91.1%
viability, T/C [10]: 76%
viability, T/C [11]: 73.4%
viability, T/C [12]: 70.4%
viability, T/C [13]: 95%
viability, T/C [14]: 87.8%
viability, T/C [15]: 88.3%
viability, T/C [16]: 79.4%
viability, T/C [17]: 79.3%
viability, T/C [18]: 72.8%
viability, T/C [19]: 91.8%
viability, T/C [20]: 91.4%
viability, T/C [21]: 95%
viability, T/C [22]: 88.5%
viability, T/C [23]: 77.7%
viability, T/C [24]: 79.1%
viability, T/C [25]: 98.7%
viability, T/C [26]: 107%
viability, T/C [27]: 94.2%
viability, T/C [28]: 83%
viability, T/C [29]: 84.5%
viability, T/C [30]: 73.3%
viability, T/C [31]: 117%
viability, T/C [32]: 96.7%
viability, T/C [33]: 89.6%
viability, T/C [34]: 78.2%
viability, T/C [35]: 88.1%
viability, T/C [36]: 73.4%

C=CC(=O)N1CCN(c2nc(=O)n(-c3c(C)ccnc3C(C)C)c3nc(-c4c(O)cccc4F)c(F)cc23)C(C)C1 (stereo unspecified) + Nc1ccc(C#CCN(C(=O)Cc2ncc(C(F)(F)F)cc2C(F)(F)F)c2ccc(F)cc2)nn1
IC50 (second compound 0.0316 µM): > 10 µM
IC50 (second compound 0.1 µM): > 10 µM
IC50 (second compound 0.316 µM): > 10 µM
IC50 (second compound 1 µM): > 10 µM
IC50 (second compound 3.16 µM): > 10 µM
IC50 (second compound 10 µM): > 10 µM
viability, T/C [1]: 104%
viability, T/C [2]: 99.7%
viability, T/C [3]: 96.7%
viability, T/C [4]: 111%
viability, T/C [5]: 116%
viability, T/C [6]: 97%
viability, T/C [7]: 105%
viability, T/C [8]: 97.2%
viability, T/C [9]: 110%
viability, T/C [10]: 112%
viability, T/C [11]: 102%
viability, T/C [12]: 98.3%
viability, T/C [13]: 108%
viability, T/C [14]: 104%
viability, T/C [15]: 103%
viability, T/C [16]: 105%
viability, T/C [17]: 116%
viability, T/C [18]: 100%
viability, T/C [19]: 109%
viability, T/C [20]: 102%
viability, T/C [21]: 103%
viability, T/C [22]: 108%
viability, T/C [23]: 119%
viability, T/C [24]: 99.3%
viability, T/C [25]: 102%
viability, T/C [26]: 98.8%
viability, T/C [27]: 103%
viability, T/C [28]: 108%
viability, T/C [29]: 115%
viability, T/C [30]: 106%
viability, T/C [31]: 104%
viability, T/C [32]: 111%
viability, T/C [33]: 102%
viability, T/C [34]: 108%
viability, T/C [35]: 107%
viability, T/C [36]: 104%

C#Cc1c(F)ccc2cc(O)cc(-c3ncc4c(N5CC6CCC(C5)N6)nc(OCC56CCCN5CC(F)C6)nc4c3F)c12 (stereo unspecified) + COC1C(OC(N)=O)C(O)C(Oc2ccc3c(O)c(NC(=O)c4ccc(O)c(CC=C(C)C)c4)c(=O)oc3c2C)OC1(C)C
IC50 (second compound 0.0316 µM): > 10 µM
IC50 (second compound 0.1 µM): > 10 µM
IC50 (second compound 0.316 µM): > 10 µM
IC50 (second compound 1 µM): > 10 µM
IC50 (second compound 3.16 µM): > 10 µM
IC50 (second compound 10 µM): > 10 µM
viability, T/C [1]: 97.7%
viability, T/C [2]: 78.8%
viability, T/C [3]: 81.6%
viability, T/C [4]: 76.1%
viability, T/C [5]: 73.4%
viability, T/C [6]: 68%
viability, T/C [7]: 98%
viability, T/C [8]: 83.9%
viability, T/C [9]: 86.5%
viability, T/C [10]: 73.3%
viability, T/C [11]: 70.2%
viability, T/C [12]: 72.1%
viability, T/C [13]: 98.7%
viability, T/C [14]: 88.4%
viability, T/C [15]: 82.9%
viability, T/C [16]: 77.5%
viability, T/C [17]: 78.9%
viability, T/C [18]: 72.1%
viability, T/C [19]: 94.8%
viability, T/C [20]: 86.7%
viability, T/C [21]: 80.1%
viability, T/C [22]: 76.8%
viability, T/C [23]: 73.2%
viability, T/C [24]: 70.7%
viability, T/C [25]: 95.1%
viability, T/C [26]: 90.2%
viability, T/C [27]: 82.3%
viability, T/C [28]: 73.2%
viability, T/C [29]: 75.9%
viability, T/C [30]: 71.7%
viability, T/C [31]: 95.2%
viability, T/C [32]: 84.1%
viability, T/C [33]: 79.6%
viability, T/C [34]: 78.7%
viability, T/C [35]: 74%
viability, T/C [36]: 62.8%
